Like-named read-outs stand apart in the source and are kept apart here.
Tests used:
[1] = next 5 days of incubation (days 5-10), 37° C.
Experimental: The proteins were then assessed for their stability against degradation during 15 days of incubation with PBS (see FIG. 12A) or human serum (see FIG. 12B) at 37° C.

HIV-1 PBL286.VRC36aPV = assay: TZM-bl cell-based neutralization assay; conditions: Table 6, clade C, R5
HIV-1 CH64 = format: cell-based; conditions: Table 7; CH64, clade BC, R5
HIV-1 CNE6 = format: cell-based; conditions: Table 7; CNE6, clade B′, R5
HIV-1 NL4-3 = assay: Pseudotyped HIV-1 neutralization (HOS-CD4-CXCR4 cells); format: cell-based; conditions: Table 3; NL4-3, clade B, X4
Experimental: (§1) To determine the potency and breadth of HIV-1 neutralization by the D1 mutants, viruses pseudotyped with Envs from HIV-1 isolates representing clades A-E and using either CCR5 (R5) or CXCR4 (X4) or both (R5X4) as a coreceptor were included. Pseudoviruses were derived from 293T cells and a neutralization assay was performed in duplicate using HOS-CD4-CCR5 (for all R5 and dual tropic viruses) or HOS-CD4-CXCR4 cell lines as described in Chen et al., Proc. Natl. Acad. Sci. USA, 105: 17121-17126 (2008)). Luminescence was measured 48 hours post-infection and the percentage neutralization was calculated by the following formula: (1—average RLU of inhibitor-containing wells/average RLU or virus-only wells)×100.

HIV-1 IIIB = assay: as above; format: cell-based; conditions: Table 3, clade B, X4
Experimental: as §1

HIV-1 57128.VRC18 = assay: TZM-bl cell-based neutralization assay; conditions: Table 6; 57128.VRC18, clade D, R5
HIV-1 Bal.EC1 TC = assay: TZM-bl cell-based neutralization assay; conditions: Table 6, clade B, R5
HIV-1 CNE20 = format: cell-based; conditions: Table 7; CNE20, clade BC, R5
HIV-1 KNH1088.EC5 = assay: TZM-bl cell-based neutralization assay; conditions: Table 6; KNH1088.EC5, clade A, R5
HIV-1 CAM0015BBY.EC3 = assay: TZM-bl cell-based neutralization assay; conditions: Table 6; CAM0015BBY.EC3, clade AG, R5
[2] = system: HIV-1 pseudotyped with Envs from different clades; assay: Pseudotyped HIV-1 neutralization, means over the panel of Table 3; format: cell-based; conditions: all viruses, <[…] assigned 0.01, 2G12: 10 isolates significantly neutralized
Experimental: as §1

HIV-1 N1 1046.e3 PV = assay: TZM-bl cell-based neutralization assay; conditions: Table 6, clade AE, R5
HIV-1 CH119 = format: cell-based; conditions: Table 7; CH119, clade BC, R5
[3] = system: HIV-1 isolates from clades A to D, AE, and AG; assay: TZM-bl cell-based neutralization assay, means over the panel (n=12); conditions: Table 6, all viruses, >167 nM assigned 200, >250 assigned 300
HIV-1 CNE59 = format: cell-based; conditions: Table 7; CNE59, clade AE, R5
HIV-1 CNE9 = format: cell-based; conditions: Table 7; CNE9, clade B′, R5
HIV-1 CNE55 = format: cell-based; conditions: Table 7; CNE55, clade AE, R5
HIV-1 CNE30 = format: cell-based; conditions: Table 7; CNE30, clade BC, R5
HIV-1 CNE11 = format: cell-based; conditions: Table 7; CNE11, clade B′, R5
HIV-1 Env JRFL = assay: HIV-1 Env-mediated cell-cell fusion; format: cell-based; conditions: Table 5, clade B, R5
[4] = Solubility of fusion proteins in PBS (concentration, centrifugation); format: physicochemical
Experimental: To evaluate the potential for further development as drugs, several drug-related properties, including solubility, stability, and aggregation propensity were tested.

HIV-1 A07412VRC12A = assay: TZM-bl cell-based neutralization assay; conditions: Table 6, clade D, R5
HIV-1 Env Bal = assay: HIV-1 Env-mediated cell-cell fusion; format: cell-based; conditions: R5
HIV-1 CM240.EC1 = assay: TZM-bl cell-based neutralization assay; conditions: Table 6; CM240.EC1, clade AE, R5
HIV-1 BZ167.ec9 = assay: TZM-bl cell-based neutralization assay; conditions: Table 6; BZ167.ec9, clade B, X4
HIV-1 CH114 = format: cell-based; conditions: Table 7; CH114, clade BC, R5

With “4Dm2m: bispecific multivalent fusion protein of mD1.22 and m36.4; two SEQ ID NO: 20 and two SEQ ID NO: 21 chains” the “degradation in human serum” value [1] was “slower than that of CD4-Ig”, the IC50 (HIV-1 PBL286.VRC36aPV) was 2 nM and the IC90 (HIV-1 CH64) was 1.6 nM. It also gave an IC50 (HIV-1 CNE6) of 0.33 nM, an IC90 (HIV-1 CNE6) of 2.3 nM and an IC50 (HIV-1 NL4-3) of 0.094 ± 0.002 nM. The IC90 (HIV-1 NL4-3) was 0.15 ± 0.02 nM, the IC50 (HIV-1 IIIB) was 0.037 ± 0.001 nM and the IC90 (HIV-1 IIIB) was 0.1 ± 0.01 nM. It also gave an IC50 (HIV-1 57128.VRC18) of 0.4 nM, an IC90 (HIV-1 57128.VRC18) of 2.8 nM and an IC50 (HIV-1 Bal.EC1 TC) of 0.057 nM. The IC90 (HIV-1 Bal.EC1 TC) was 0.22 nM, the IC50 (HIV-1 CNE20) was 0.05 nM and the IC90 (HIV-1 CNE20) was 5.3 nM. The IC50 (HIV-1 KNH1088.EC5) was 0.48 nM, the IC50 (HIV-1 CAM0015BBY.EC3) was 0.72 nM and the IC90 (HIV-1 CAM0015BBY.EC3) was 7.4 nM. The “IC50, arithmetic mean” value [2] was 0.22 nM, the “IC50, geometric mean” value [2] was 0.12 nM and the “IC90, arithmetic mean” value [2] was 1.6 nM. The “IC90, geometric mean” value [2] was 0.56 nM, the IC90 (HIV-1 N1 1046.e3 PV) was 27 nM and the IC90 (HIV-1 CH119) was 3.4 nM. The IC50 ([3]; read-out: IC50, arithmetic mean) was 0.72 nM, the IC50 ([3]; read-out: IC50, geometric mean) was 0.28 nM and the IC90 ([3]; read-out: IC90, geometric mean) was 2.4 nM. The IC90 (HIV-1 CNE59) was 2.7 nM, the IC50 (HIV-1 CNE9) was 0.22 nM and the IC50 (HIV-1 CNE55) was 0.45 nM. It also gave an IC90 (HIV-1 CNE55) of 10 nM, an IC50 (HIV-1 CNE30) of 0.07 nM and an IC90 (HIV-1 CNE30) of 0.44 nM. The IC50 (HIV-1 CNE11) was 0.33 nM, the IC90 (HIV-1 CNE11) was 2.6 nM and the IC50 (HIV-1 Env JRFL) was 3.6 ± 0.2 nM. The IC90 (HIV-1 Env JRFL) was 8.8 ± 0.4 nM, the precipitation on storage ([4]; 4° C. for 2 weeks) was “no additional precipitation was observed” and the “concentration reached in PBS without visible precipitation after high-speed centrifugation” value ([4]; PBS) was 25000 µg/mL. It also gave an IC50 (HIV-1 A07412VRC12A) of 0.75 nM, an IC90 (HIV-1 A07412VRC12A) of 5.7 nM and an IC50 (HIV-1 Env Bal; Table 4, clade B) of 4.1 nM. The IC50 (HIV-1 Env Bal; Table 5, clade B) was 4.1 ± 0.1 nM, the IC50 (HIV-1 CM240.EC1) was 0.45 nM and the IC90 (HIV-1 CM240.EC1) was 3.7 nM. It also gave an IC50 (HIV-1 BZ167.ec9) of 0.077 nM, an IC90 (HIV-1 BZ167.ec9) of 0.5 nM and an IC50 (HIV-1 CH114) of 0.11 nM. It also gave an IC90 (HIV-1 CH114) of 4 nM.
In the case of enfuvirtide, the IC50 (HIV-1 CH64) is reported as 3.1 nM, the IC90 (HIV-1 CH64) is reported as 25 nM and the IC50 (HIV-1 CNE6) is reported as 1.4 nM. For the same substance, the IC90 (HIV-1 CNE6) was 15 nM, the IC50 (HIV-1 CNE20) was 5.5 nM and the IC90 (HIV-1 CNE20) was 41 nM. It also gave an IC50 (HIV-1 CH119) of 2 nM, an IC90 (HIV-1 CH119) of 25 nM and an IC50 (HIV-1 CNE59) of 1.4 nM. For the same substance, the IC90 (HIV-1 CNE59) was 17 nM, the IC50 (HIV-1 CNE9) was 1.7 nM and the IC90 (HIV-1 CNE9) was 14 nM. For the same substance, the IC50 (HIV-1 CNE55) was 26 nM, the IC90 (HIV-1 CNE55) was 549 nM and the IC50 (HIV-1 CNE30) was 26 nM. It also gave an IC90 (HIV-1 CNE30) of 285 nM, an IC50 (HIV-1 CNE11) of 3.5 nM and an IC90 (HIV-1 CNE11) of 36 nM. The IC50 (HIV-1 CH114) was 102 nM and the IC90 (HIV-1 CH114) was greater than 750 nM.

Reference: patent US20160039904A1, “STABILIZED SINGLE HUMAN CD4 DOMAINS AND FUSION PROTEINS” (priority 2013, published 2016)
